Assay results from ChEMBL document CHEMBL4033663, “Design, combinatorial synthesis and biological evaluations of novel 3-amino-1'-((1-aryl-1H-1,2,3-triazol-5-yl)methyl)-2'-oxospiro[benzo[a] pyrano[2,3-c]phenazine-1,3'-indoline]-2-carbonitrile antitumor hybrid molecules” (Eur J Med Chem, 2017).

system: HUVEC; test: Antiproliferative activity against human HUVEC cells after 48 hrs by MTT assay; assay type: cell-based; details: not given

N#CC1=C(N)Oc2c(N)cc3nc4ccccc4nc3c2C12C(=O)N(Cc1cnnn1-c1ccc(Cl)cc1Cl)c1ccccc12 (centres undefined) and N#CC1=C(N)Oc2c(N)cc3nc4ccccc4nc3c2C12C(=O)N(Cc1cnnn1-c1c(F)cccc1F)c1ccccc12 (centres undefined) cannot be ordered by IC50: greater than 50 µM for the first, greater than 50 µM for the second.

N#CC1=C(N)Oc2c(N)cc3nc4ccccc4nc3c2C12C(=O)N(Cc1cnnn1-c1ccc(F)cc1)c1ccccc12 (centres undefined) and Cc1cccc(-n2nncc2CN2C(=O)C3(C(C#N)=C(N)Oc4c(N)cc5nc6ccccc6nc5c43)c3ccccc32)c1 (centres undefined) cannot be ordered by IC50: greater than 50 µM for the first, greater than 50 µM for the second.

Cc1ccc(-n2nncc2CN2C(=O)C3(C(C#N)=C(N)Oc4c(N)cc5nc6ccccc6nc5c43)c3ccccc32)cc1C (centres undefined) and CCc1ccccc1-n1nncc1CN1C(=O)C2(C(C#N)=C(N)Oc3c(N)cc4nc5ccccc5nc4c32)c2ccccc21 (centres undefined) cannot be ordered by IC50: greater than 50 µM for the first, greater than 50 µM for the second.

N#CC1=C(N)Oc2c(N)cc3nc4ccccc4nc3c2C12C(=O)N(Cc1cnnn1-c1ccc([N+](=O)[O-])cc1[N+](=O)[O-])c1ccccc12 (centres undefined) and COc1cc(-n2nncc2CN2C(=O)C3(C(C#N)=C(N)Oc4c(N)cc5nc6ccccc6nc5c43)c3ccccc32)c(OC)cc1Cl (centres undefined) cannot be ordered by IC50: greater than 50 µM for the first, greater than 50 µM for the second.

N#CC1=C(N)Oc2c(c3nc4ccccc4nc3c3ccccc23)C12C(=O)N(Cc1cnnn1-c1ccccc1Br)c1ccccc12 (centres undefined) gave an IC50 greater than 50 µM.

system: L02; test: Antiproliferative activity against human L02 cells after 48 hrs by MTT assay; assay type: cell-based; details: L02, 48 h

N#CC1=C(N)Oc2c(N)cc3nc4ccccc4nc3c2C12C(=O)N(Cc1cnnn1-c1ccc(Cl)cc1Cl)c1ccccc12 (centres undefined) and N#CC1=C(N)Oc2c(N)cc3nc4ccccc4nc3c2C12C(=O)N(Cc1cnnn1-c1c(F)cccc1F)c1ccccc12 (centres undefined) cannot be ordered by IC50: greater than 50 µM for the first, greater than 50 µM for the second.

N#CC1=C(N)Oc2c(N)cc3nc4ccccc4nc3c2C12C(=O)N(Cc1cnnn1-c1ccc(F)cc1)c1ccccc12 (centres undefined) and Cc1cccc(-n2nncc2CN2C(=O)C3(C(C#N)=C(N)Oc4c(N)cc5nc6ccccc6nc5c43)c3ccccc32)c1 (centres undefined) cannot be ordered by IC50: greater than 50 µM for the first, greater than 50 µM for the second.

Going from Cc1ccc(-n2nncc2CN2C(=O)C3(C(C#N)=C(N)Oc4c(N)cc5nc6ccccc6nc5c43)c3ccccc32)cc1C (centres undefined) to CCc1ccccc1-n1nncc1CN1C(=O)C2(C(C#N)=C(N)Oc3c(N)cc4nc5ccccc5nc4c32)c2ccccc21 (centres undefined), the IC50 falls from greater than 50 µM to 22.9 µM.

Going from N#CC1=C(N)Oc2c(N)cc3nc4ccccc4nc3c2C12C(=O)N(Cc1cnnn1-c1ccc([N+](=O)[O-])cc1[N+](=O)[O-])c1ccccc12 (centres undefined) to COc1cc(-n2nncc2CN2C(=O)C3(C(C#N)=C(N)Oc4c(N)cc5nc6ccccc6nc5c43)c3ccccc32)c(OC)cc1Cl (centres undefined), the IC50 rises from 22.8 µM to greater than 50 µM. The first is the more potent here.

For N#CC1=C(N)Oc2c(c3nc4ccccc4nc3c3ccccc23)C12C(=O)N(Cc1cnnn1-c1ccccc1Br)c1ccccc12 (centres undefined), the IC50 was greater than 50 µM.

system: HCT-116; test: Antiproliferative activity against human HCT116 cells after 48 hrs by MTT assay; assay type: functional, cell-based; details: HCT-116, 48 h

N#CC1=C(N)Oc2c(N)cc3nc4ccccc4nc3c2C12C(=O)N(Cc1cnnn1-c1ccc(Cl)cc1Cl)c1ccccc12 (centres undefined) and N#CC1=C(N)Oc2c(N)cc3nc4ccccc4nc3c2C12C(=O)N(Cc1cnnn1-c1c(F)cccc1F)c1ccccc12 (centres undefined) cannot be ordered by IC50: greater than 50 µM for the first, greater than 50 µM for the second.

N#CC1=C(N)Oc2c(N)cc3nc4ccccc4nc3c2C12C(=O)N(Cc1cnnn1-c1ccc(F)cc1)c1ccccc12 (centres undefined) and Cc1cccc(-n2nncc2CN2C(=O)C3(C(C#N)=C(N)Oc4c(N)cc5nc6ccccc6nc5c43)c3ccccc32)c1 (centres undefined) cannot be ordered by IC50: greater than 50 µM for the first, greater than 50 µM for the second.

Going from Cc1ccc(-n2nncc2CN2C(=O)C3(C(C#N)=C(N)Oc4c(N)cc5nc6ccccc6nc5c43)c3ccccc32)cc1C (centres undefined) to CCc1ccccc1-n1nncc1CN1C(=O)C2(C(C#N)=C(N)Oc3c(N)cc4nc5ccccc5nc4c32)c2ccccc21 (centres undefined), the IC50 falls from greater than 50 µM to 10.3 µM.

Going from N#CC1=C(N)Oc2c(N)cc3nc4ccccc4nc3c2C12C(=O)N(Cc1cnnn1-c1ccc([N+](=O)[O-])cc1[N+](=O)[O-])c1ccccc12 (centres undefined) to COc1cc(-n2nncc2CN2C(=O)C3(C(C#N)=C(N)Oc4c(N)cc5nc6ccccc6nc5c43)c3ccccc32)c(OC)cc1Cl (centres undefined), the IC50 rises from 23.9 µM to greater than 50 µM. The first is the more potent here.

N#CC1=C(N)Oc2c(c3nc4ccccc4nc3c3ccccc23)C12C(=O)N(Cc1cnnn1-c1ccccc1Br)c1ccccc12 (centres undefined) was tested, and the IC50 was greater than 50 µM.

system: MCF7; test: Antiproliferative activity against human MCF7 cells after 48 hrs by MTT assay; assay type: functional, cell-based; details: MCF7, 48 h

N#CC1=C(N)Oc2c(N)cc3nc4ccccc4nc3c2C12C(=O)N(Cc1cnnn1-c1ccc(Cl)cc1Cl)c1ccccc12 (centres undefined) and N#CC1=C(N)Oc2c(N)cc3nc4ccccc4nc3c2C12C(=O)N(Cc1cnnn1-c1c(F)cccc1F)c1ccccc12 (centres undefined) cannot be ordered by IC50: greater than 50 µM for the first, greater than 50 µM for the second.

N#CC1=C(N)Oc2c(N)cc3nc4ccccc4nc3c2C12C(=O)N(Cc1cnnn1-c1ccc(F)cc1)c1ccccc12 (centres undefined) and Cc1cccc(-n2nncc2CN2C(=O)C3(C(C#N)=C(N)Oc4c(N)cc5nc6ccccc6nc5c43)c3ccccc32)c1 (centres undefined) cannot be ordered by IC50: greater than 50 µM for the first, greater than 50 µM for the second.

Compared with Cc1ccc(-n2nncc2CN2C(=O)C3(C(C#N)=C(N)Oc4c(N)cc5nc6ccccc6nc5c43)c3ccccc32)cc1C (centres undefined), CCc1ccccc1-n1nncc1CN1C(=O)C2(C(C#N)=C(N)Oc3c(N)cc4nc5ccccc5nc4c32)c2ccccc21 (centres undefined) is lower in IC50: greater than 50 µM for the first, 24.6 µM for the second.

Compared with N#CC1=C(N)Oc2c(N)cc3nc4ccccc4nc3c2C12C(=O)N(Cc1cnnn1-c1ccc([N+](=O)[O-])cc1[N+](=O)[O-])c1ccccc12 (centres undefined), COc1cc(-n2nncc2CN2C(=O)C3(C(C#N)=C(N)Oc4c(N)cc5nc6ccccc6nc5c43)c3ccccc32)c(OC)cc1Cl (centres undefined) is higher in IC50: 20.9 µM for the first, greater than 50 µM for the second. The first is the more potent here.

Molecule N#CC1=C(N)Oc2c(c3nc4ccccc4nc3c3ccccc23)C12C(=O)N(Cc1cnnn1-c1ccccc1Br)c1ccccc12 (centres undefined) has an IC50 greater than 50 µM.

system: HepG2; test: Antiproliferative activity against human HepG2 cells after 48 hrs by MTT assay; assay type: functional, cell-based; details: HepG2, 48 h

N#CC1=C(N)Oc2c(N)cc3nc4ccccc4nc3c2C12C(=O)N(Cc1cnnn1-c1ccc(Cl)cc1Cl)c1ccccc12 (centres undefined) and N#CC1=C(N)Oc2c(N)cc3nc4ccccc4nc3c2C12C(=O)N(Cc1cnnn1-c1c(F)cccc1F)c1ccccc12 (centres undefined) cannot be ordered by IC50: greater than 50 µM for the first, greater than 50 µM for the second.

N#CC1=C(N)Oc2c(N)cc3nc4ccccc4nc3c2C12C(=O)N(Cc1cnnn1-c1ccc(F)cc1)c1ccccc12 (centres undefined) and Cc1cccc(-n2nncc2CN2C(=O)C3(C(C#N)=C(N)Oc4c(N)cc5nc6ccccc6nc5c43)c3ccccc32)c1 (centres undefined) cannot be ordered by IC50: greater than 50 µM for the first, greater than 50 µM for the second.

Going from Cc1ccc(-n2nncc2CN2C(=O)C3(C(C#N)=C(N)Oc4c(N)cc5nc6ccccc6nc5c43)c3ccccc32)cc1C (centres undefined) to CCc1ccccc1-n1nncc1CN1C(=O)C2(C(C#N)=C(N)Oc3c(N)cc4nc5ccccc5nc4c32)c2ccccc21 (centres undefined), the IC50 falls from greater than 50 µM to 17.9 µM. The second is the more potent here.

First: N#CC1=C(N)Oc2c(N)cc3nc4ccccc4nc3c2C12C(=O)N(Cc1cnnn1-c1ccc([N+](=O)[O-])cc1[N+](=O)[O-])c1ccccc12 (centres undefined)
Second: COc1cc(-n2nncc2CN2C(=O)C3(C(C#N)=C(N)Oc4c(N)cc5nc6ccccc6nc5c43)c3ccccc32)c(OC)cc1Cl (centres undefined)
The IC50 of the first is lower: 18.4 µM for the first, greater than 50 µM for the second. The first is the more potent here.

N#CC1=C(N)Oc2c(c3nc4ccccc4nc3c3ccccc23)C12C(=O)N(Cc1cnnn1-c1ccccc1Br)c1ccccc12 (centres undefined) showed an IC50 greater than 50 µM.

system: A549; test: Antiproliferative activity against human A549 cells after 48 hrs by MTT assay; assay type: functional, cell-based; details: A549, 48 h

N#CC1=C(N)Oc2c(N)cc3nc4ccccc4nc3c2C12C(=O)N(Cc1cnnn1-c1ccc(Cl)cc1Cl)c1ccccc12 (centres undefined) and N#CC1=C(N)Oc2c(N)cc3nc4ccccc4nc3c2C12C(=O)N(Cc1cnnn1-c1c(F)cccc1F)c1ccccc12 (centres undefined) cannot be ordered by IC50: greater than 50 µM for the first, greater than 50 µM for the second.

Compared with N#CC1=C(N)Oc2c(N)cc3nc4ccccc4nc3c2C12C(=O)N(Cc1cnnn1-c1ccc(F)cc1)c1ccccc12 (centres undefined), Cc1cccc(-n2nncc2CN2C(=O)C3(C(C#N)=C(N)Oc4c(N)cc5nc6ccccc6nc5c43)c3ccccc32)c1 (centres undefined) is lower in IC50: greater than 50 µM for the first, 12.3 µM for the second.

Going from Cc1ccc(-n2nncc2CN2C(=O)C3(C(C#N)=C(N)Oc4c(N)cc5nc6ccccc6nc5c43)c3ccccc32)cc1C (centres undefined) to CCc1ccccc1-n1nncc1CN1C(=O)C2(C(C#N)=C(N)Oc3c(N)cc4nc5ccccc5nc4c32)c2ccccc21 (centres undefined), the IC50 falls from greater than 50 µM to 24.6 µM. The second is the more potent here.

N#CC1=C(N)Oc2c(N)cc3nc4ccccc4nc3c2C12C(=O)N(Cc1cnnn1-c1ccc([N+](=O)[O-])cc1[N+](=O)[O-])c1ccccc12 (centres undefined) and COc1cc(-n2nncc2CN2C(=O)C3(C(C#N)=C(N)Oc4c(N)cc5nc6ccccc6nc5c43)c3ccccc32)c(OC)cc1Cl (centres undefined) cannot be ordered by IC50: greater than 50 µM for the first, greater than 50 µM for the second.

Work on N#CC1=C(N)Oc2c(c3nc4ccccc4nc3c3ccccc23)C12C(=O)N(Cc1cnnn1-c1ccccc1Br)c1ccccc12 (centres undefined) yielded an IC50 greater than 50 µM.
